The values below come from paper PMC9654333, “AmyP53, a Therapeutic Peptide Candidate for the Treatment of Alzheimer’s and Parkinson’s Disease: Safety, Stability, Pharmacokinetics Parameters and Nose-to Brain Delivery” (International Journal of Molecular Sciences, 2022).

On the set-up of data set [1]: method as in PMID 22963731, PMID 23444784, PMID 33551991, PMID 17720549, PMID 15728733. The conditions noted are these: therapeutic peptides delivered to the brain via the intranasal route; cited from earlier work.
Data set [2] in a line: In vitro stability in commercial human serum (LC–MS). It is filed as in vitro ADME. As to the method: (§1) Supernatants were stored at −20 °C before analysis.
(§2) AmyP53 in water solution (300 µM) was mixed with rat blood (obtained from Syncrosome, Marseille, France), or commercial human serum (Sigma-Aldrich, St. Louis, MO, USA). AmyP53 concentrations were then determined by LC–MS at the indicated times after extraction, as detailed above.

The nature of data set [3]: Pharmacokinetics in rat blood and brain after intranasal or intravenous administration.
Source text: (§3) Male and female Sprague Dawley rats, 6 weeks old at receipt, weighing around 300 g at the beginning of the experiments were used for pharmacokinetics studies. The animals that were included in these experiments were naïve to the previous administration of drugs. The acclimatization of rats lasted at least 5 days. Animals had free access to food (RM1, SDS Dietex) and drinking water ad libitum. […] The protocol used by Syncrosome was approved by an Animal Ethical Committee (French National Committee N°71) and by the Higher Education and Research Ministry (#2015070314429284_v2). […] Every effort was done to minimize animal suffering and to reduce the number of animals used in the experiments in compliance with the ARRIVE guidelines.
(§4) One compound formulation at one dose for each route of administration was tested during the present study. The data were treated with the PKsolver add-in of Excel [125].
(§5) Anesthetized (ketamine/medetomidine or isoflurane 4% for induction and then 2.5%) rats were treated intravenously once. The final volume of administration was 0.5 mL/kg (100 mg/kg body weight). As soon as the administration was performed (t0), a timer was started.
(§6) A catheter was introduced into each nostril of the rat with a depth of 7 mm [126]. Anesthetized (ketamine/medetomidine or isoflurane 4% for induction and then 2.5%) rats were treated once. The volume of administration was 10 μL/nostril (20 μL per rat, 12 mg/kg body weight). As soon as the administration was performed (t0), a timer was started.
(§7) Blood samples of 2 mL were collected through direct intracardiac puncture and separated on two K3-EDTA Greiner Bio-One tubes of 1 mL (ref. 454034A, Dominique Dutscher, Bernolsheim, France). A 100× solution of protease inhibitors (ref. 1862209, ThermoScientific, Waltham, MA, USA) was added immediately after sampling (10 μL/tube). The first tube of the blood sample was then separated in 2 samples with different procedures (with and without sonication) and the other one was used for plasma preparation.
(§8) Brains were collected immediately after blood collection, split in 2 hemispheres, and then transferred into Eppendorf tubes. Brain samples were placed into crushed dry ice for several minutes and frozen at −80 °C. When indicated, the rats were transcardially perfused with a solution of phosphate-buffered saline (PBS) for 10 min with a flow rate of 40 mL/min to remove blood in the brain tissue. A subcutaneous administration of buprenorphine (0.03 mg/kg) was performed at least 30 min prior to transcardial perfusion.
(§9) For blood and serum stability and for pharmacokinetics studies, blood and plasma samples (200 µL) were incubated with 3 volumes of methanol for 30 min at 4 °C and then centrifuged at 4 °C for 5 min (16,000× g). Supernatants were stored at −20 °C before analysis. Brain homogenates were prepared at 4 °C in PBS containing 1 mM EDTA and protease inhibitors (ref. 1862209, ThermoScientific, Waltham, MA, USA) in a glass Potter homogenizer. Homogenate samples (600 µL) were incubated with 3 volumes of methanol for 30 min at 4 °C and centrifuged at 4 °C for 5 min (16,000× g). Supernatants were evaporated under nitrogen flux and then diluted in 100 µL of 0.1% formic acid in water.
(§10) The concentrations of intact AmyP53 in biological samples were determined by liquid chromatography–mass spectrometry (Acquity iClass-Vion LC-MS; Waters, Guyancourt, France).
The nature of data set [4]: Chemical stability of aqueous solution upon storage (LC–MS). The data set is classed as physicochemical. The conditions noted are these: 1 mM in pure water, stored 18 months at 4 °C, 20 °C and 45 °C. As to the method: AmyP53 samples (1 mM in water) were stored at 4 °C, 20 °C, and 45 °C in sealed Eppendorf tubes and analyzed at different time points for chemical integrity (LC-MS method) and biological activity (binding to ganglioside GM1). For calibration, different dilutions of the standard solution were injected three times, and the peak area was measured for all three. […] The percentage of recovery was >98%, in full agreement with the certificate analysis of AmyP53 batch # #P190628-LL735654. LC–MS linearity was observed over the 5–100 pmol injected range (R^2 > 0.99). The minimal amount detected was 5 pmol.

The nature of data set [5]: Toxicology study, repeated intranasal administration over 7 days. The conditions noted are these: for Behavior (Days 1–7) / Brain Histology / Inflammation at Nostrils / Body Weight (Day 7): rat; for Body Weight (Day 7): mean ± SEM, in g (unit assumed).
Procedure: Male and female Wistar rats (4 animals per group) were treated with the indicated dose of AmyP53, and toxicology studies were conducted as previously described [75]. Statistical analysis was performed with the Kruskal–Wallis test.
The conditions of data set [6]: rat, in vivo.
Source text: as §3, §4, §5, §6, §7, §8, §9, §10
For data set [7] the following is noted: cited from earlier work.
Data set [8] has as its system bEnd.3 murine endothelial cells (bEnd.3/C6 co-cultures). The data set is described as follows: Transport through in vitro reconstituted blood–brain barrier (two-compartment chamber). It is filed as in vitro ADME, mouse. The conditions noted are these: for Transendothelial transport through the blood–brain barrier: bEnd.3/C6 model, donor basal to acceptor apical compartment. As to the method: An in vitro model of the blood–brain barrier was reconstituted with bEnd.3 murine endothelial cells obtained from the American Type Culture Collection (ATCC, Manassas, VA, USA) ref. bEnd.3 [BEND3] (ATCC CRL-2299). These cells were cultured in chambers with two compartments separated by a filter with a porosity of 0.4 µm (Corning-Transwell, Dominique Dutscher, Bernolsheim, France). The cells were seeded at a density of 50,000 cells per individual filter and cultured in a growth medium containing 10% fetal calf serum. After an initial spreading step, the bEnd.3 cells colonized the entire surface available on the filter, thus reconstituting a functional endothelium. At this stage, the cells established tight junctions preventing the passage of molecules and ions. In order to improve the differentiation of bEnd.3 cells, we also set up two coculture systems: [bEnd.3 + astrocytes (CTX cells)] and [bEnd.3 + glioma (C6 cells)]. In these cases, the glial cells were seeded in the basal compartment (non-contact model) and co-cultured for 6 days before using bEnd.3 cell monolayers for transport experiments. The impermeability of each of these cellular barriers was assessed by transendothelial resistance measurements with a Voltmeter-Ohmmeter Millicell-ERS (Merck-Millipore, Burlington, MA, USA). […] All experiments were performed 6 times.

Data set [9] is described as follows: In vitro stability in rat whole blood (LC–MS). It is filed as in vitro ADME. As to the method:
as §1, §2

The nature of the next data set: in vivo. The conditions noted are these: both, Sprague Dawley, rat, 12 mg/kg.

“And” between values parts separate entries of the source, which are not always exact repeats. Equal values may be shown once. “Also recorded” adds a separate entry of the source. Read-outs that look alike come from different tables or passages of the source. Ends that are not written are not given here. A value given as a limit tells only on which side of the number the result lay.

Source text for in vivo: as §3, §4, §5, §6, §7, §8, §9, §10

Take Vasopressin [reference compound]: in data set [1], the pHi is 8.0.

In the case of “TGF-β: therapeutic peptide delivered to the brain via the intranasal route, 112 aa”, the pHi in [1] is on record as 8.6.

“VIP: therapeutic peptide delivered to the brain via the intranasal route, 28 aa [reference compound]”: the pHi in data set [1] was 9.8.

For KEGVLYVGHHTK [AmyP53], the half-life at 300 µM turned out to be 5 min in data set [2] (commercial human serum, read-out: Half-life time) and 17 min in [9] (rat fresh whole blood, read-out: Half-life time). Besides, the Detection after incubation entry in data set [2] (human serum, 300 µM, 30 min) is reported as “no longer detected in serum after 30 min”; in data set [9] (rat whole blood, 300 µM, 60 min), “still detected after 60 min”. The solubility in “physchem” was > 146000 µM and > 200000 µg/mL. The “Ratio of AUCIN/AUCiv” value in [3] (blood) is 123%; in [3] (brain) it was 94%. Besides, in data set [4], the “Chemical stability in water solution” value is “remains chemically intact over 18 months; also recorded: remained remarkably stable under all these conditions”. In addition, the “Toxicology findings after repeated intranasal injections” value in data set [5] (male and female Wistar rats, doses up to 5 mg/kg body weight, 7-day period) is “no mortality, no behavioral changes, no body weight loss, and no alterations of brain tissue at autopsy”. Moreover, the “Behavior (Days 1–7)” value in [5] (female, intranasal 0.2 mg/kg) is “NTR NTR”; in data set [5] (female, intranasal 1.0 mg/kg), “NTR NTR”; in data set [5] (female, intranasal 5.0 mg/kg), “NTR NTR”; in data set [5] (male, intranasal 0.2 mg/kg) it was “NTR NTR”; in [5] (male, intranasal 1.0 mg/kg), “NTR NTR”; in [5] (male, intranasal 5.0 mg/kg), “NTR NTR”. In addition, the “Brain Histology” value was “NTR NTR” in data set [5] (female, intranasal 0.2 mg/kg); “NTR NTR” in [5] (female, intranasal 1.0 mg/kg); “NTR NTR” in [5] (female, intranasal 5.0 mg/kg); “NTR NTR” in [5] (male, intranasal 0.2 mg/kg); “NTR NTR” in data set [5] (male, intranasal 1.0 mg/kg); “NTR NTR” in data set [5] (male, intranasal 5.0 mg/kg). Further, the “Inflammation at Nostrils” value in data set [5] (female, intranasal 0.2 mg/kg every two days during 7 days) is given as “No No”; in [5] (female, intranasal 1.0 mg/kg every two days during 7 days), “No No”; in data set [5] (female, intranasal 5.0 mg/kg every two days during 7 days), “No No”; in data set [5] (male, intranasal 0.2 mg/kg every two days during 7 days), “No No”; in data set [5] (male, intranasal 1.0 mg/kg every two days during 7 days), “No No”; in data set [5] (male, intranasal 5.0 mg/kg every two days during 7 days), “No No”. The “Body Weight (Day 7)” value in [5] (female, intranasal 0.2 mg/kg) was 189.46 ± 15.15; in [5] (female, intranasal 1.0 mg/kg), 191.03 ± 3.13; in data set [5] (female, intranasal 5.0 mg/kg), 185.70 ± 5.77; in data set [5] (male, intranasal 0.2 mg/kg), 248.94 ± 8.51; in data set [5] (male, intranasal 1.0 mg/kg) it was 252.26 ± 5.77; in data set [5] (male, intranasal 5.0 mg/kg), 250.90 ± 5.68. Moreover, the Tmax was 5 min in data set [6] (both, Sprague Dawley, 12 mg/kg) and 10 min in the data set “in vivo”. Moreover, the “AmyP53 reaching the brain” value in data set [6] was found to be 1.57%. In addition, the “Efficiency of nose-to-brain delivery versus blood circulation” value in data set [6] is 7.85 fold. Also, the “Inflammatory reaction in the nostrils and the tails” value in data set [7] (AmyP53-treated rats) was “no inflammatory reaction could be observed”. Further, the Tolerance entry in [7] (rats, administered intravenously or intranasally) is “perfect tolerance”. The Undesirable effects result is “no undesirable effect could be detected” in data set [7] (rats, intranasal administration, doses up to 5 mg/kg body weight) and “no undesirable effect could be detected” in data set [7] (rats, intravenous administration, doses up to 80 mg/kg). For the same substance, the “Transendothelial transport through the blood–brain barrier” value in [8] was “almost as effective as synB3 and more than synB5; also recorded: at least as efficiently as syn B3 and even more than syn B5”. Further, the “Transendothelial resistance during incubation” value in data set [8] (reconstituted blood–brain barrier, incubation with AmyP53) was “remained unchanged”.

Turning to “EPO: therapeutic peptide delivered to the brain via the intranasal route, 165 aa”, in data set [1], the pHi is reported as 8.7.

For the substance RRLSYSRRRF [synB3, reference compound], the “Transendothelial transport through the blood–brain barrier” value in [8] was “efficiently crossed the blood–brain barrier”.

For “NGF: therapeutic peptide delivered to the brain via the intranasal route, 120 aa”, the pHi in [1] is on record as 9.0.

As for “RGGRLAYLRRRWAVLGR [synB5, reference compound]”, the “Transendothelial transport through the blood–brain barrier” value in data set [8] is recorded as “efficiently crossed the blood–brain barrier”.
